Several values for one entry are separate records, joined by “and”; a condition that tells them apart may be missing. Identical values can stand only once. Like-named read-outs stand apart in the source and are kept apart here.
Legend:
[1] = assay type: physicochemical
Description: For each condition, samples were staged at ambient and refrigerated conditions. Samples were analyzed for % assay/degs, appearance, reconstitution time, pH, and compared to T=0. The structures of the key impurities/metabolites are shown below.

[2] = In use testing of reconstituted solutions in IV bags and IV tubings; assay type: physicochemical
Excerpt: The IV bags and IV tubings were sampled over time and tested for % assay/degradation.

CCC(CC)COC(=O)[C@H](C)N[P@](=O)(OC[C@H]1O[C@@](C(N)=O)(c2ccc3c(N)ncnn23)[C@H](O)[C@@H]1O)Oc1ccccc1 [Compound G]
0.06 % w/w: % assay/degradation ([2]; 30 mg (IV Bag), 2-8° C. 48 h) | % assay/degradation ([2]; 30 mg (IV Bag), Ambient 4 h) | % assay/degradation ([2]; 30 mg (IV Bag), Ambient 8 h) | % assay/degradation ([2]; 30 mg (IV Bag), Ambient 24 h) | % assay/degradation ([2]; 30 mg (IV Tube), Ambient 6 Hours) | % assay/degradation ([2]; 200 mg (IV Bag), 2-8° C. 48 h) | % assay/degradation ([2]; 200 mg (IV Bag), Ambient 4 h) | % assay/degradation ([2]; 200 mg (IV Bag), Ambient 8 h) | % assay/degradation ([2]; 200 mg (IV Bag), Ambient 24 h)
0.05 % w/w: % assay/degradation ([2]; 30 mg (IV Bag), 2-8° C. 24 h) | % assay/degradation ([2]; 30 mg (IV Bag), T = 0 (2-8° C. series)) | % assay/degradation ([2]; 30 mg in 100 mL 0.9% Saline (IV Bag), T = 0 (Ambient series)) | % assay/degradation ([2]; 200 mg (IV Bag), 2-8° C. 24 h) | % assay/degradation ([2]; 200 mg (IV Bag), T = 0 (2-8° C. series)) | % assay/degradation ([2]; 200 mg (IV Tube), Ambient 6 h) | % assay/degradation ([2]; 200 mg in 100 mL 0.9% Saline (IV Bag), T = 0 (Ambient series))
0.06%: % assay/degs ([1]; pH 4.0, T = 0)
0.05%: % assay/degs ([1]; pH 1.8, T = 0) | % assay/degs ([1]; pH 2.0, T = 0) | % assay/degs ([1]; pH 3.5, T = 0) | % assay/degs ([1]; pH 3.8, T = 0)
0.00%: % assay/degs, difference from T = 0 ([1]; pH 1.8, 2-8° C., 2 h) | % assay/degs, difference from T = 0 ([1]; pH 1.8, 2-8° C., 3 h) | % assay/degs, difference from T = 0 ([1]; pH 1.8, 2-8° C., 8 h) | % assay/degs, difference from T = 0 ([1]; pH 1.8, 2-8° C., 24 h) | % assay/degs, difference from T = 0 ([1]; pH 1.8, 2-8° C., 48 h) | % assay/degs, difference from T = 0 ([1]; pH 1.8, Ambient, 1 h) | % assay/degs, difference from T = 0 ([1]; pH 1.8, Ambient, 2 h) | % assay/degs, difference from T = 0 ([1]; pH 1.8, Ambient, 3 h) | % assay/degs, difference from T = 0 ([1]; pH 1.8, Ambient, 8 h) | % assay/degs, difference from T = 0 ([1]; pH 1.8, Ambient, 24 h) | % assay/degs, difference from T = 0 ([1]; pH 1.8, Ambient, 48 h) | % assay/degs, difference from T = 0 ([1]; pH 2.0, 2-8° C., 2 h) | % assay/degs, difference from T = 0 ([1]; pH 2.0, 2-8° C., 3 h) | % assay/degs, difference from T = 0 ([1]; pH 2.0, 2-8° C., 8 h) | % assay/degs, difference from T = 0 ([1]; pH 2.0, 2-8° C., 24 h) | % assay/degs, difference from T = 0 ([1]; pH 2.0, 2-8° C., 48 h) | % assay/degs, difference from T = 0 ([1]; pH 2.0, Ambient, 1 h) | % assay/degs, difference from T = 0 ([1]; pH 2.0, Ambient, 2 h) | % assay/degs, difference from T = 0 ([1]; pH 2.0, Ambient, 3 h) | % assay/degs, difference from T = 0 ([1]; pH 2.0, Ambient, 8 h) | % assay/degs, difference from T = 0 ([1]; pH 2.0, Ambient, 24 h) | % assay/degs, difference from T = 0 ([1]; pH 2.0, Ambient, 48 h) | % assay/degs, difference from T = 0 ([1]; pH 3.5, 2-8° C., 2 h) | % assay/degs, difference from T = 0 ([1]; pH 3.5, 2-8° C., 8 h) | % assay/degs, difference from T = 0 ([1]; pH 3.5, 2-8° C., 24 h) | % assay/degs, difference from T = 0 ([1]; pH 3.5, 2-8° C., 48 h) | % assay/degs, difference from T = 0 ([1]; pH 3.5, 2-8° C., 72 h) | % assay/degs, difference from T = 0 ([1]; pH 3.5, 2-8° C., 96 h) | % assay/degs, difference from T = 0 ([1]; pH 3.5, 2-8° C., 168 h) | % assay/degs, difference from T = 0 ([1]; pH 3.5, Ambient, 2 h) | % assay/degs, difference from T = 0 ([1]; pH 3.5, Ambient, 8 h) | % assay/degs, difference from T = 0 ([1]; pH 3.5, Ambient, 24 h) | % assay/degs, difference from T = 0 ([1]; pH 3.5, Ambient, 48 h) | % assay/degs, difference from T = 0 ([1]; pH 3.5, Ambient, 72 h) | % assay/degs, difference from T = 0 ([1]; pH 3.5, Ambient, 96 h) | % assay/degs, difference from T = 0 ([1]; pH 3.5, Ambient, 168 h) | % assay/degs, difference from T = 0 ([1]; pH 3.8, 2-8° C., 7.2 h) | % assay/degs, difference from T = 0 ([1]; pH 3.8, 2-8° C., 24 h) | % assay/degs, difference from T = 0 ([1]; pH 3.8, 2-8° C., 96 h) | % assay/degs, difference from T = 0 ([1]; pH 3.8, 2-8° C., 168 h) | % assay/degs, difference from T = 0 ([1]; pH 3.8, Ambient, 7.2 h) | % assay/degs, difference from T = 0 ([1]; pH 3.8, Ambient, 24 h) | % assay/degs, difference from T = 0 ([1]; pH 3.8, Ambient, 96 h) | % assay/degs, difference from T = 0 ([1]; pH 3.8, Ambient, 168 h) | % assay/degs, difference from T = 0 ([1]; pH 4.0, 2-8° C., 7.2 h) | % assay/degs, difference from T = 0 ([1]; pH 4.0, 2-8° C., 24 h) | % assay/degs, difference from T = 0 ([1]; pH 4.0, 2-8° C., 96 h) | % assay/degs, difference from T = 0 ([1]; pH 4.0, 2-8° C., 168 h) | % assay/degs, difference from T = 0 ([1]; pH 4.0, Ambient, 7.2 h) | % assay/degs, difference from T = 0 ([1]; pH 4.0, Ambient, 24 h) | % assay/degs, difference from T = 0 ([1]; pH 4.0, Ambient, 96 h) | % assay/degs, difference from T = 0 ([1]; pH 4.0, Ambient, 168 h)

Oc1ccccc1 [Phenol]
0.00%: % assay/degs ([1]; pH 1.8) | % assay/degs ([1]; pH 2) | % assay/degs ([1]; pH 3.5) | % assay/degs, difference from T = 0 ([1]; pH 3.5)
0.00% and 0.04% and 0.05%: % assay/degs, difference from T = 0 ([1]; pH 2)
0.00% and 0.04% and 0.08%: % assay/degs, difference from T = 0 ([1]; pH 1.8)
0.00 % w/w: % assay/degradation [2]

— patent US11701372B2, “Inhalation formulations of 1'-cyano substituted carba-nucleoside analogs” (priority 2020, dated 2023)
